From patent publication US20050119305A1, “Il-6 production inhibitors” (priority 2001, published 2005)

Test system: IL-6 production from A549 cells
Experiment: Inhibitory activity on IL-6 production from A549 cells (TNF-α stimulated, ELISA)
Assay type: cell-based
Details: A549 cells (human lung epithelial cell line), TNF-α stimulation, 24 hours incubation, IL-6 in supernatant by ELISA; read-out: 50% inhibitory concentration (IC50) on IL-6 production
Method: According to following experiments, it is confirmed that the compound of the present invention has an inhibitory activity on IL-6 production. • (1) The Measurement of an Inhibitory Activity on IL-6 Production from A549 Cells Method:
1.5×10^4 of A549 cells (human lung epithelial cell line) were suspended in 100 μL of Dulbecco's Modified Eagle Medium (DMEM) containing 0.5% fetal bovine serum (abbreviated as FBS) and incubated for a day and night in 96 well-microplate. 20 μL of the test compound dissolved in dimethylsulfoxide (DMSO) at various concentrations and 80 μl of tumor necrosis factor-α (TNF-α (Genzyme Co., cat. No. TNF-H)) dissolved in serum-free DMEM at the concentration of 12.5 ng/mL were added thereto. After the incubation for 24 hours, the supernatant (100 μL) was collected to measure the amount of IL-6 being produced using enzyme linked immuno […] assay (ELISA) (R&D Systems Co., cat. No. D6050). Then the inhibitory activity of the test compound was calculated and the 50% inhibitory concentration (IC50) was determined.

Q: `O=C(CCCCCNC(=O)c1ccc(-c2ccccc2)cc1)NO` [Example 2] was tested. Which IC50 did it give?
A: The IC50 was 180 nM.
